Data published in patent US8044035B2, “Pharmaceutical compositions of pyrimidine-2,4,6-triones” (priority 2004, dated 2011).
Read-outs that look alike come from different tables or passages of the source.

Legend:
[1] = Solubility of various trioxopyrimidines in the presence of HPβCD; format: physicochemical; conditions: HPβCD solution, 37 °C, aqueous with cosolvent or surfactant or cyclodextrin, thermodynamic from solid, read-out: Concentration (solubility)
Procedure: 1.1 Weigh 20 mg of compound I. Add 2 ml of solution of HPβCD 200 mM. Stir for 24 h at 37° C. Filter in Millipore filter Millex HV 0.45 μm. The solution obtained after filtration contains the complex compound I-CD in solution.
1.2. Weigh 2.5 mg of compound I. Add 2 ml of solution of HPβCD 200 mM. Stir at 37° C. for 24 h or until compound I is completely dissolved. The solution obtained in this way contains the complex compound I-CD.
At the time of a complex formation, compound I, practically insoluble in water (<0.6 μg/ml, MW: 485), solubilizes dramatically. The increase in the solubility of compound I is thus proof of a complex formation between Compound I and the CD. Complex formation and achievement of the equilibrium is found at 20% after 1 day, 40% after 4 days, and 100% after 7 days. The solubility diagrams (FIG. 1) are carried out by adding an excess of compound I to the CD solutions of increasing concentration. After 7 days of stirring in thermostatically controlled baths at 37° C., these solutions are filtered and the solubilized compound I quantity is dosed by HPLC. The βCD and the γCD as well as their synthetic derivatives have allowed complexes with compound I to be formed. The β-CD and the HPβCD come from ROQUETTE (France), the RMβCD and the γCD have been supplied by Wacker (Germany).
The flasks containing compound I and the cyclodextrins are placed being stirred in thermostatically controlled baths at 37° C. for 7 days, so that the complexation balance is reached. After this time, the suspensions are filtered with the help of a milli-pore filter 0.22 μm in PVDF and the filtrate is dissolved in DMSO in the mobile phase to obtain concentration samples situating themselves on the calibrating line. They are then dosed thanks to the validated HPLC method, described below.
Solubility is investigated according to Examples 1 and 2.

[2] = Differential solubility in acetonitrile of free and complexed compound I; format: physicochemical
Source text: Compound I has different solubility when it is in the complex form or not. […] In these conditions the included drug remains trapped and becomes insoluble in the solvent. This technique of differential solubility between compound I in the free or in the complexed form can be applied to evaluate the percentage of complexation.

O=C1NC(=O)C(c2ccc(Oc3ccc(Cl)cc3)cc2)(N2CCN(c3ncccn3)CC2)C(=O)N1 [Compound III, 5-[4-(4-Chloro-phenoxy)-phenyl]-5-(4-pyrimidin-2-yl-piperazin-1-yl)-pyrimidine-2,4,6-trione]
solubility ([1]; HPβCD 10 mM): 800 µg/mL | solubility ([1]; HPβCD 25 mM): 2400 µg/mL | solubility ([1]; HPβCD 50 mM): 3100 µg/mL | solubility ([1]; HPβCD 100 mM): 6100 µg/mL | solubility ([1]; HPβCD 200 mM): 9500 µg/mL

O=C1NC(=O)C(c2ccc(Oc3ccc(Cl)c(Cl)c3)cc2)(N2CCN(c3ncccn3)CC2)C(=O)N1 [Compound IV, 5-[4-(3,4-Dichloro-phenoxy)-phenyl]-5-(4-pyrimidin-2-yl-piperazin-1-yl)-pyrimidine-2,4,6-trione]
solubility ([1]; HPβCD 10 mM): 100 µg/mL | solubility ([1]; HPβCD 25 mM): 200 µg/mL | solubility ([1]; HPβCD 50 mM): 900 µg/mL | solubility ([1]; HPβCD 100 mM): 2700 µg/mL | solubility ([1]; HPβCD 200 mM): 7900 µg/mL

O=C1NC(=O)C(c2ccc(Oc3ccccc3)cc2)(N2CCN(c3ncccn3)CC2)C(=O)N1 [Compound II, 5-(4-Phenoxy-phenyl)-5-(4-pyrimidin-2-yl-piperazin-1-yl)-pyrimidine-2,4,6-trione]
solubility ([1]; HPβCD 10 mM): 1300 µg/mL | solubility ([1]; HPβCD 25 mM): 3400 µg/mL | solubility ([1]; HPβCD 50 mM): 3800 µg/mL | solubility ([1]; HPβCD 100 mM): 5900 µg/mL | solubility ([1]; HPβCD 200 mM): 9300 µg/mL

Hydroxypropyl β-cyclodextrin [HP-β-CD]
Solubility in acetonitrile [2]: insoluble

O=C1NC(=O)C(c2ccc(Oc3ccc(Br)cc3)cc2)(N2CCN(c3ncccn3)CC2)C(=O)N1 [Compound V, 5-[4-(4-Bromo-phenoxy)-phenyl]-5-(4-pyrimidin-2-yl-piperazin-1-yl)-pyrimidine-2,4,6-trione]
solubility ([1]; HPβCD 10 mM): 800 µg/mL | solubility ([1]; HPβCD 25 mM): 2400 µg/mL | solubility ([1]; HPβCD 50 mM): 5400 µg/mL | solubility ([1]; HPβCD 100 mM): 6600 µg/mL | solubility ([1]; HPβCD 200 mM): 9900 µg/mL
